Data reported in patent US10759796B2, “CXCR4 inhibitors and uses thereof” (X4 Pharmaceuticals, Inc., priority 2016, dated 2020).

Key:
[1] = biological target: CXCR-4 transfected U87 cell line (U87.CXCR4) (Homo sapiens (Human), UniProt P61073); assay: Intracellular CXCL-12-induced calcium mobilization assay (FLIPR); format: cell-based; settings: U87.CXCR4 cells, CXCL-12 25-50 ng/mL; read-out: IC50 CXCL-12 Ca2+ flux U87.CXCR4+
Description: Example 28: REGA Screening Assay
Intracellular CXCL-12-Induced Calcium Mobilization Assay
Intracellular calcium mobilization induced by chemokines or chemokine-derived peptides were evaluated using a calcium responsive fluorescent probe and a FLIPR system. The CXCR-4 transfected U87 cell line (U87.CXCR4) cells were seeded in gelatine-coated black-wall 96-well plates at 20,000 cells per well and incubated for 12 hours. Cells were then loaded with the fluorescent calcium probe Fluo-2 acetoxymethyl at 4 μM final concentration in assay buffer (Hanks' balanced salt solution with 20 mM HEPES buffer and 0.2% bovine serum albumin, pH 7.4) for 45 min at 37° C. The intracellular calcium mobilization induced by the CXCL-12 (25-50 ng/mL) was then measured at 37° C. by monitoring the fluorescence as a function of time in all the wells simultaneously using a fluorometric imaging plate reader (FLIPR Tetra, Molecular Devices).

[2] = biological target: Jurkat cells expressing CXCR4 (Homo sapiens (Human), UniProt P61073); assay: Chemokine (CXCL12-AF647) binding inhibition assay; settings: CXCL12-AF647 25 ng/mL, read-out: IC50 CXCL-12 binding Jurkat
Description: Chemokine (CXCL12-AF647) Binding Inhibition Assay
Jurkat cells expressing CXCR4 were washed once with assay buffer (Hanks' balanced salt solution with 20 mM HEPES buffer and 0.2% bovine serum albumin, pH 7.4) and then incubated for 15 min at room temperature with the test compounds diluted in assay buffer at dose-dependent concentrations. Subsequently, CXCL12-AF647 (25 ng/mL) was added to the compound-incubated cells. The cells were incubated for 30 min at room temperature. Thereafter, the cells were washed twice in assay buffer, fixed in 1% paraformaldehyde in PBS, and analyzed on the FL4 channel of a FACSCalibur flow cytometer equipped with a 635-nm red diode laser (Becton Dickinson, San Jose, Calif., USA).
The percentages of inhibition of CXCL12-AF647 binding were calculated according to the formula: [1−((MFI−MFINC)/(MFIPC−MFINC))]×100 where MFI is the mean fluorescence intensity of the cells incubated with CXCL12-AF647 in the presence of the inhibitor, MFINC is the mean fluorescence intensity measured in the negative control (i.e., autofluorescence of unlabeled cells), and MFIPC is the mean fluorescence intensity of the positive control (i.e., cells exposed to CXCL12-AF647 alone).

in vitro = settings: human, Caco-2, pH 7.4
Description: Example 28: Caco-2 Permeability Assay
The goal of this assay was to evaluate the intestinal absorption potential of drug candidates using Caco-2 cell lines.
1. Prewarm Prewarm HBSS Buffer in 37° C. water bath
2. Sonicate Take compounds from −20° C., sonicate for a few minutes (no less than 1 minute)
HBSS buffer with 0.3% DMSO and 5 μM LY: add 150 μL DMSO and 50 μL LY (5 mM) into 50 ml HBSS buffer (pH 7.4).
HBSS buffer with 0.1% DMSO and 5 μM LY: add 50 μL DMSO and 50 μL LY (5 mM) into 50 mL HBSS buffer (pH 7.4).
HBSS buffer with 0.3% DMSO: add 150 μL DMSO into 50 ml HBSS buffer (pH 7.4).
HBSS buffer with 0.1% DMSO: add 50 μL DMSO into 50 ml HBSS buffer (pH 7.4).
Receiver Solution Buffer:
Prepare HBSS buffer with 0.4% DMSO: add 200 μL DMSO into 50 ml HBSS buffer (pH 7.4).
Prepare HBSS buffer with 0.4% DMSO and 5 μM LY: add 200 μL DMSO and 50 μL LY (5 mM) into 50 ml HBSS buffer (pH 7.4).
4. Measure TEER Take cell culture plate out of incubator, wash the cell monolayers with HBSS buffer, and then measure TEER values at Rm temperature. 5. Centrifuge Centrifuge the compound solution (from step 3) at 4000 rpm for 5 min before loading to donor chambers. 6. Dosing Add solution based on the volumes listed in the following table (make sure to take extra 100 μL of donor sample for TO as Backup).
7. Apical LYT0 Samples To determine LY concentration in the apical chember, take 100 μL sample from apical chambers into an opaque plate for LYT0. 8. Prewarm Prewarm apical and basolateral plates at 37° C. for about 5 min, then begin transport by placing the apical plate onto basolateral plate. 9. Incubation Keep the plates in incubator at 37° C. for 90 min. 10. Standard Curve Preparation
For 300 μM compound solution, add 6 μL of compound stock solution into 192 μL of MeOH/H2O (1:1).
Prepare Working Solution in MeOH/H2O (1:1)
3 μL (20×)+57 μL of 0.4% DMSO HBSS+60 μL ACN with IS (Osalmid or Imipramine) - - - 120 μL (1×)
11. Transport Termination Separate the apical plate from the basolateral plate after 90-min incubation.
12. Measure LY Take 100 μL samples from basolateral plate to an opaque plate as LYT90.
13. Measure LY concentrations for LYT0 and LYT90 by Fluorometer (at excitation of 485 nm/emission of 535 nm).
Study details: Test concentration 10 μM
Test systems: Caco-2/HBSS solution
Incubation conditions: 0, 90 min at 37° C.
Sample size: Duplicates (n=2)
Bioanalytical method: LC-MS/MS
For Millicell-24 Cell Culture Plates: surface area of the membrane=0.7 cm^2, VA=0.8 mL (A-to-B) or 0.4 mL (B-to-A)
1. Papp values were calculated based on calculated concentrations.
The compound numbers correspond to the compound numbers in Table 1.

CXCR-4 transfected U87 cell line (U87.CXCR4), sequence (P61073 whole entry): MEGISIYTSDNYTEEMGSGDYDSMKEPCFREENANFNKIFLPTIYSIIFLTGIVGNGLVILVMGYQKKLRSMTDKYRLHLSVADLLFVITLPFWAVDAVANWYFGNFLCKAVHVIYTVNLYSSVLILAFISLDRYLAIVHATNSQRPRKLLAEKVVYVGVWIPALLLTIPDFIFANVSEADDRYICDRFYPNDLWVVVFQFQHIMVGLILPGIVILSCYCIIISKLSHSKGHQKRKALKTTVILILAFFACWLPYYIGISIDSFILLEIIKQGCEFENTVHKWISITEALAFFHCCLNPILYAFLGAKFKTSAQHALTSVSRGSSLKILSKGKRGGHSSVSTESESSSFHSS
Jurkat cells expressing CXCR4, sequence (P61073 whole entry): as above

Compound | IC50 [1] [nM] | IC50 [2] [nM] | Papp A→B at 90 min, 10 μM (in vitro) [×10⁻⁶ cm/s] | Papp B→A at 90 min, 10 μM (in vitro) [×10⁻⁶ cm/s] | efflux ratio at 90 min, 10 μM (in vitro)
Cc1cccnc1[C@@H]1CCC[C@H](c2cn3ccccc3n2)N1CCc1cnccn1 [Compound I-9] | 0.01 to 100 | 0.01 to 100 | 10 to 30 | 10 to 30 | 0.1 to 10
Cc1cccnc1[C@@H]1CCC[C@H](c2nc3cccc(N4CCN(C)CC4)n3c2CO)N1C [Compound I-11] | 0.01 to 100 | 0.01 to 100 | 0.1 to 10 | 10 to 30 | 0.1 to 10
COCc1c([C@H]2CCC[C@@H](c3ncccc3C)N2C)nc2cccc(N3CCN(C)CC3)n12 [Compound I-12] | 0.01 to 100 | 0.01 to 100 | 0.1 to 10 | 10 to 30 | 0.1 to 10
CCN1CCN(c2cccc3nc([C@H]4CCC[C@@H](c5ncccc5C)N4C)cn23)CC1 [Compound I-13] | 0.01 to 100 | 0.01 to 100 | 0.1 to 10 | 10 to 30 | 0.1 to 10
Cc1cccnc1[C@@H]1CCC[C@H](c2cn3c(N4CCN(CC(F)(F)F)CC4)cccc3n2)N1C [Compound I-14] | 100 to 1000 | 100 to 1000 | 10 to 30 | 10 to 30 | 0.1 to 10
Cc1cccnc1[C@@H]1CCC[C@H](c2cn3c(N4CCN(C(C)C)CC4)cccc3n2)N1C [Compound I-15] | 0.01 to 100 | 0.01 to 100 | 0.1 to 10 | 10 to 30 | 0.1 to 10
Cc1cccnc1[C@@H]1CCC[C@H](c2cn3ccccc3n2)N1Cc1ccccc1-n1cccn1 [Compound I-16] | 0.01 to 100 | 0.01 to 100 | 10 to 30 | 10 to 30 | 0.1 to 10
Cc1cccnc1[C@@H]1CCC[C@H](c2nc3cccc(N4CCN(C)CC4)n3c2Br)N1C [Compound I-17] | 0.01 to 100 | 0.01 to 100 | 0.1 to 10 | 0.1 to 10 | 0.1 to 10
CCOCc1c([C@H]2CCC[C@@H](c3ncccc3C)N2C)nc2cccc(N3CCN(C)CC3)n12 [Compound I-21] | 0.01 to 100 | 0.01 to 100 | 0.1 to 10 | 10 to 30 | 0.1 to 10
Cc1cccnc1[C@@H]1CCC[C@H](c2nc3ccccn3c2CCCN2CCOCC2)N1C [Compound I-29] | 100 to 1000 | 0.01 to 100 | 0.1 to 10 | 10 to 30 | 0.1 to 10
CCN1[C@@H](c2cn3c(N4CCN(C(C)C)CC4)cccc3n2)CCC[C@H]1c1ncccc1C [Compound I-37] | 0.01 to 100 | 0.01 to 100 | 0.1 to 10 | 10 to 30 | 0.1 to 10
Cc1cccnc1[C@@H]1CCC[C@H](c2nc3ccccn3c2CN2CCN(C)CC2)N1C [Compound I-38] | 0.01 to 100 | 0.01 to 100 | 0.1 to 10 | > 30 | > 30
Cc1cccnc1[C@@H]1CCC[C@H](c2nc3ccccn3c2CN2CCN(C(C)C)CC2)N1C [Compound I-39] | 100 to 1000 | 0.01 to 100 | 0.1 to 10 | > 30 | 10 to 30
CCN1CCN(Cc2c([C@H]3CCC[C@@H](c4ncccc4C)N3C)nc3ccccn23)CC1 [Compound I-40] | 0.01 to 100 | 0.01 to 100 | 0.1 to 10 | > 30 | > 30
CCN1[C@@H](c2nc3cccc(N4CCN(C(C)C)CC4)n3c2Br)CCC[C@H]1c1ncccc1C [Compound I-45] | ≥ 1000 | 100 to 1000 | 0.1 to 10 | 0.1 to 10 | 0.1 to 10
CCN1[C@@H](c2nc3cccc(N4CCN(C)CC4)n3c2Br)CCC[C@H]1c1ncccc1C [Compound I-46] | 0.01 to 100 | 0.01 to 100 | 0.1 to 10 | 0.1 to 10 | 0.1 to 10
Cc1cccnc1[C@@H]1CCC[C@H](c2nc3cccc(N4CCN(C)CC4)n3c2Br)N1C(C)C [Compound I-47] | 0.01 to 100 | 0.01 to 100 | 0.1 to 10 | 0.1 to 10 | 0.1 to 10
Cc1cccnc1[C@@H]1CCC[C@H](c2nc3cccc(N4CCN(C)CC4)n3c2COC(C)C)N1C [Compound I-48] | 100 to 1000 | 0.01 to 100 | 0.1 to 10 | 10 to 30 | 0.1 to 10
Cc1cccnc1[C@@H]1CCC[C@H](c2cn3c(N4CCN(C)CC4)cccc3n2)N1CCCO [Compound I-49] | 0.01 to 100 | 0.01 to 100 | 0.1 to 10 | 10 to 30 | 0.1 to 10
